The source of these data is patent publication US20050148633A1 (priority 2003, published 2005).

This assay deals with IL-2 production. Briefly: Inhibition of IL-2 production in PHA-activated Jurkat cells (ELISA). The following applies: Homo sapiens. In kind it is cell-based. The method, then:
Jurkat cells were placed in a 96 well plate (0.5 million cells per well in 1% FBS medium) then test compounds of this invention were added at different concentrations. After 10 minutes, the cells were activated with PHA (final concentration 2.5 μg/mL) and incubated for 20 hours at 37° C. under CO2. The final volume was 200 μL. Following incubation, the cells were centrifuged and the supernatants collected and stored at −70° C. prior to assaying for IL-2 production. A commercial ELISA kit (IL-2 Eli-pair, Diaclone Research, Besancon, France) was used to detect production of IL-2, from which dose response curves were obtained. The IC50 value was calculated as the concentration at which 50% of maximum IL-2 production after stimulation was inhibited versus a non-stimulation control.
A general note: ELISA stands for enzyme-linked immunosorbent assay.

Where [1] appears, read: PHA 2.5 μg/mL, 20 hours, value bins.

`Cc1cc(C)c(-c2ccc(NC(=O)c3cccc(F)c3F)cc2)cc1C` [Compound 52, N-(2′,4′,5′-trimethyl-biphenyl-4-yl)-2,3-difluorobenzamide] gave an IC50 under setting [1] of less than 100 nM. On the same count and under the same terms, the same measure for `Cc1cccc(C(=O)Nc2ccc(-c3cc(C(F)(F)F)ccc3C(F)(F)F)cc2)c1C` [Compound 53, N-(2′,5′-bis-trifluoromethyl-biphenyl-4-yl)-2,3-dimethylbenzamide]: less than 100 nM. Still for that read-out and setting: the result for `Cc1c(Cl)cccc1C(=O)Nc1ccc(-c2cc(C(F)(F)F)ccc2C(F)(F)F)cc1` [Compound 54, N-(2′,5′-bis-trifluoromethyl-biphenyl-4-yl)-2-methyl-3-chlorobenzamide] reads less than 100 nM; that for `Cc1c(F)cccc1C(=O)Nc1ccc(-c2cc(C(F)(F)F)ccc2C(F)(F)F)cc1` [Compound 55, N-(2′,5′-bis-trifluoromethyl-biphenyl-4-yl)-2-methyl-3-fluorobenzamide], less than 100 nM. On the same count and under the same terms, the result for `COc1cccc(C(=O)Nc2ccc(-c3cc(C(F)(F)F)ccc3C(F)(F)F)cc2)c1C` [Compound 56, N-(2′,5′-bis-trifluoromethyl-biphenyl-4-yl)-2-methyl-3-methoxybenzamide] reads less than 100 nM; that for `COc1ccc(OC)c(-c2ccc(NC(=O)c3snnc3C)cc2)c1` [Compound 58, 4-methyl-[1,2,3]-thiadiazole-5-carboxylic acid (2′,5′-dimethoxy-biphenyl-4-yl)-amide], less than 100 nM; that for `COc1ccc(OC)c(-c2ccc(NC(=O)c3ccccc3C)cc2)c1` [Compound 59, N-(2′,5′-dimethoxy-biphenyl-4-yl)-2-methylbenzamide], less than 100 nM.

As for `Cc1ncccc1C(=O)Nc1ccc(-c2cc(C(F)(F)F)ccc2C(F)(F)F)cc1` [Compound 60, 2-methyl-pyridine-3-carboxylic acid (2′,5′-bis-trifluoromethyl-biphenyl-4-yl)-amide], under setting [1], the IC50 lay in the range of 100 to 500 nM. Consider `O=C(Nc1ccc(-c2cc(C(F)(F)F)ccc2C(F)(F)F)cc1)c1cccc2c1OCCO2` [Compound 61, 2,3-dihydro-benzo[1,4]dioxine-5-carboxylic acid (2′,5′-bis-trifluoromethyl-biphenyl-4-yl)-amide], for which the IC50 (PHA, bin 500 nM-1 μM) was 500 to 1000 nM. As to `Cn1cncc1C(=O)Nc1ccc(-c2cc(C(F)(F)F)ccc2C(F)(F)F)cc1` [Compound 62, 1-methyl-1H-imidazole-5-carboxylic acid (2′,5′-bis-trifluoromethyl-biphenyl-4-yl)-amide], under setting [1], the IC50 fell in the range of 100 to 500 nM.

In turn, `COc1ccc(OC)c(-c2ccc(NC(=O)c3ccncc3C)cc2)c1` [Compound 63, 3-methyl-pyridine-4-carboxylic acid (2′,5′-dimethoxy-biphenyl-4-yl)-amide] displayed an IC50 under setting [1] of less than 100 nM. Regarding `Cc1cnccc1C(=O)Nc1ccc(-c2cc(C(F)(F)F)ccc2C(F)(F)F)cc1` [Compound 64, 3-methyl-pyridine-4-carboxylic acid (2′,5′-bis-trifluoromethyl-biphenyl-4-yl)-amide], under setting [1], the IC50 was less than 100 nM.

`COc1ccc(Cl)cc1-c1ccc(NC(=O)c2ccncc2C)cc1` [Compound 65, 3-methyl-pyridine-4-carboxylic acid (2′-methoxy-5′-chlorobiphenyl-4-yl)-amide] had an IC50 under setting [1] of less than 100 nM. Under setting [1], `COc1ccc(Cl)cc1-c1ccc(NC(=O)c2ccncc2F)cc1` [Compound 67, 3-fluoro-pyridine-4-carboxylic acid (2′-methoxy-5′-chlorobiphenyl-4-yl)-amide] came in with an IC50 of less than 100 nM. The same measure, in the same setting: the result for `O=C(Nc1ccc(-c2cc(C(F)(F)F)ccc2C(F)(F)F)cc1)c1ccncc1F` [Compound 68, 3-fluoro-pyridine-4-carboxylic acid (2′,5′-bis-trifluoromethylbiphenyl-4-yl)-amide] reads less than 100 nM; that for `COc1ccc(C)cc1-c1ccc(NC(=O)c2ccncc2C)cc1` [Compound 69, 3-methyl-pyridine-4-carboxylic acid (2′-methoxy-5′-methylbiphenyl-4-yl)-amide], less than 100 nM; that for `Cc1ccc(C)c(-c2ccc(NC(=O)c3ccncc3C)cc2)c1` [Compound 70, 3-methyl-pyridine-4-carboxylic acid (2′,5′-dimethylbiphenyl-4-yl)-amide], 100 to 500 nM. The same measure, in the same setting: the same measure for `COc1ccc(C(C)=O)cc1-c1ccc(NC(=O)c2snnc2C)cc1` [Compound 71, 4-methyl-[1,2,3]-thiadiazole-5-carboxylic acid (2′-methoxy-5′-acetylbiphenyl-4-yl)-amide]: 100 to 500 nM. Still for that read-out and setting: the result for `O=C(Nc1ccc(-c2cc(Cl)ccc2OC(F)F)cc1)c1ccncc1F` [Compound 72, 3-fluoro-pyridine-4-carboxylic acid (2′-difluoromethoxy-5′-chlorobiphenyl-4-yl)-amide] reads less than 100 nM.

Molecule `Cc1nnsc1C(=O)Nc1ccc(-c2cc(OC(F)(F)F)ccc2N(C)C)cc1` [Compound 73, 4-methyl-[1,2,3]-thiadiazole-5-carboxylic acid {2′-(N,N-dimethylamino)-5′-trifluoromethoxybiphenyl-4-yl}-amide] returned an IC50 under setting [1] of less than 100 nM. Still for that read-out and setting: the result for `Cc1cnccc1C(=O)Nc1ccc(-c2cc(C(F)(F)F)ccc2Cl)cc1` [Compound 74, 3-methyl-pyridine-4-carboxylic acid (2′-chloro-5′-trifluoromethylbiphenyl-4-yl)-amide] reads less than 100 nM; that for `CCc1ccccc1-c1ccc(NC(=O)c2ccncc2C)cc1` [Compound 76, 3-methyl-pyridine-4-carboxylic acid (2′-ethyl-biphenyl-4-yl)-amide], less than 100 nM; that for `Cc1cnccc1C(=O)Nc1ccc(-c2ccccc2C(C)C)cc1` [Compound 77, 3-methyl-pyridine-4-carboxylic acid (2′-isopropyl-biphenyl-4-yl)-amide], 100 to 500 nM. For the molecule `CCc1ccc(CC)c(-c2ccc(NC(=O)c3ccncc3C)cc2)c1` [Compound 79, 3-methyl-pyridine-4-carboxylic acid (2′,5′-diethylbiphenyl-4-yl)-amide], the IC50 under setting [1] is less than 100 nM. `COc1ccc(N(C)C)c(-c2ccc(NC(=O)c3ccncc3C)cc2)c1` [Compound 80, 3-methyl-pyridine-4-carboxylic acid {2′-(N,N-dimethylamino)-5′-methoxybiphenyl-4-yl}-amide] gave an IC50 under setting [1] of 100 to 500 nM. Molecule `CCOc1ccc(Cl)cc1-c1ccc(NC(=O)c2ccncc2C)cc1` [Compound 82, 3-methyl-pyridine-4-carboxylic acid (2′-ethoxy-5′-chlorobiphenyl-4-yl)-amide] yielded an IC50 under setting [1] of less than 100 nM. Still for that read-out and setting: the result for `COc1ccc(Cl)cc1-c1ccc(NC(=O)c2cc(F)c(F)cc2F)cc1` [Compound 84, N-(2′-methoxy-5′-chloro-biphenyl-4-yl)-2,4,5-trifluorobenzamide] reads less than 100 nM; that for `O=C(Nc1ccc(-c2cc(C(F)(F)F)ccc2C(F)(F)F)cc1)c1c(F)cccc1F` [Compound 85, N-(2′,5′-bis-trifluoromethylbiphenyl-4-yl)-2,6-difluorobenzamide], less than 100 nM; that for `O=C(Nc1ccc(-c2cc(C(F)(F)F)ccc2Cl)cc1)c1c(F)cccc1F` [Compound 86, N-(2′-chloro-5′-trifluoromethylbiphenyl-4-yl)-2,6-difluorobenzamide], less than 100 nM. On the same count and under the same terms, the same measure for `Cc1ccc(C)c(-c2ccc(NC(=O)c3c(F)cccc3F)cc2)c1` [Compound 87, N-(2′,5′-dimethylbiphenyl-4-yl)-2,6-difluorobenzamide]: less than 100 nM; for `O=C(Nc1ccc(-c2cc(Cl)ccc2Cl)cc1)c1c(F)cccc1F` [Compound 88, N-(2′,5′-dichlorobiphenyl-4-yl)-2,6-difluorobenzamide]: less than 100 nM. Under setting [1], `O=C(Nc1ccc(-c2c(C(F)(F)F)cc3ccccn23)cc1)c1cc(F)ccc1F` [Compound 90, 2,5-Difluoro-N-[4-(2-trifluoromethyl-indolizin-3-yl)-phenyl]-benzamide] registered an IC50 of 100 to 500 nM. Still for that read-out and setting: the result for `Cc1cc2ccccn2c1-c1ccc(NC(=O)c2snnc2C)cc1` [Compound 91, 4-methyl-N-[4-(2-methyl-indolizin-3-yl)-phenyl]-[1,2,3]thiadiazole 5-carboxylic acid amide] reads 100 to 500 nM; that for `COc1ccc(OC)c(-c2ccc(NC(=O)c3c(F)cccc3F)cc2)c1` [Compound 125, N-(2′,5′-dimethoxy-biphenyl-4-yl)-2,6-difluoro-benzamide], less than 100 nM. The same measure, in the same setting: the same measure for `Cc1ccc(C(F)(F)F)c(-c2ccc(NC(=O)c3c(F)cccc3F)cc2)c1` [Compound 126, N-(2′-trifluoromethyl-5′-methyl-biphenyl-4-yl)-2,6-difluoro-benzamide]: less than 100 nM; for `Fc1cccc(F)c1CNc1ccc(-c2cc(C(F)(F)F)ccc2C(F)(F)F)cc1` [Compound 127, N-(2′,5′-bis-trifluoromethyl-biphenyl-4-yl)-2,6-difluoro-benzyl amine]: less than 100 nM.

For the molecule `COc1ccc(Cl)cc1-c1ccc(NCc2c(F)cccc2F)cc1` [Compound 129, N-(2′-methoxy-5′-chloro-biphenyl-4-yl)-2,6-difluoro-benzyl amine], the IC50 under setting [1] is less than 100 nM. For `CCN(CC)C(=O)Nc1ccc(-c2cc(C(F)(F)F)ccc2C(F)(F)F)cc1` [Compound 131, N′,N′-diethyl-N-(2′,5′-bis-trifluoromethylbiphenyl-4-yl) urea], the IC50 runs as follows: under setting [1], less than 100 nM; (PHA, bin 500 nM-1 μM) 500 to 1000 nM.

In general, IC50 refers to the concentration at which inhibition is half-maximal. A high value points to lower potency.
